{
  "source": "ChEMBL document CHEMBL5325422",
  "about": "“Design and synthesis of fascaplysin derivatives as inhibitors of FtsZ with potent antibacterial activity and mechanistic study” (Eur J Med Chem, 2023)",
  "key": {"Staphylococcus aureus [1]": {"test_system": "Staphylococcus aureus", "test": "Antibacterial activity against methicillin-resistant Staphylococcus aureus ATCC43300 assessed as bacterial growth inhibition incubated for 18 to 24 hrs by microbroth dilution method", "assay_type": "functional", "details": "time 18-24 hrs"}, "Bacillus subtilis [2]": {"test_system": "Bacillus subtilis", "test": "Antibacterial activity against Bacillus subtilis BNCC336690 assessed as bacterial growth inhibition incubated for 18 to 24 hrs by microbroth dilution method", "assay_type": "functional", "details": "time 18-24 hrs"}, "Streptococcus pneumoniae": {"test_system": "Streptococcus pneumoniae", "test": "Antibacterial activity against Streptococcus pneumoniae ATCC49619 assessed as bacterial growth inhibition incubated for 18 to 24 hrs by microbroth dilution method", "assay_type": "functional", "details": "time 18-24 hrs"}, "Escherichia coli": {"test_system": "Escherichia coli", "test": "Antibacterial activity against penicillin-susceptible Escherichia coli ATCC25922 assessed as bacterial growth inhibition incubated for 18 to 24 hrs by microbroth dilution method", "assay_type": "functional", "details": "time 18-24 hrs"}, "[3]": {"test": "Hemolytic activity in human erythrocytes assessed as release of hemoglobin level at 12.5 ug/ml incubated for 1 hr by absorbance based assay relative to control", "assay_type": "toxicity, cell-based, Erythrocyte", "details": "at 12.5 µg/mL, read-out: Activity"}, "Bacillus subtilis [4]": {"test_system": "Bacillus subtilis", "test": "Antibacterial activity against Bacillus subtilis BNCC336690 assessed as increase in cell length at 0.5 times MIC incubated for 4 hrs by microscopic analysis", "assay_type": "functional, organism-based"}, "Staphylococcus aureus [5]": {"test_system": "Staphylococcus aureus", "test": "Antibacterial activity against drug-resistant Staphylococcus aureus ATCC43300 assessed as inhibition of resistance development at 0.5 times MIC after 25 passages incubated for 18 to 24 hrs by microbroth dilution method", "assay_type": "functional, organism-based", "details": "time 18-24 hrs"}, "Staphylococcus aureus [6]": {"test_system": "Staphylococcus aureus", "test": "Antibacterial activity against methicillin-resistant Staphylococcus aureus ATCC43300 assessed as wrinkling cell surface at 4 times MIC incubated for 2 hrs by SEM analysis", "assay_type": "functional, organism-based"}, "[7]": {"test": "Cytotoxicity against mouse RAW264.7 cells assessed as cell survival at 25 ug/ml incubated for 24 hrs by CCK8 assay relative to control", "assay_type": "toxicity, cell-based", "details": "at 25 µg/mL, read-out: Activity"}, "RAW264.7": {"test_system": "RAW264.7", "test": "Cytotoxicity against mouse RAW264.7 cells >12.5 ug/ml incubated for 24 hrs by CCK8 assay", "assay_type": "toxicity, cell-based", "details": "raw264.7, 24 h, dose > 12.5 µg/ml"}, "[8]": {"test": "Cytotoxicity against mouse RAW264.7 cells assessed as cell survival at 50 ug/ml incubated for 24 hrs by CCK8 assay relative to control", "assay_type": "toxicity, cell-based", "details": "at 50 µg/mL, read-out: Activity"}, "Staphylococcus aureus [9]": {"test_system": "Staphylococcus aureus", "test": "Antibacterial activity against methicillin-resistant Staphylococcus aureus ATCC43300 assessed as filamentation on cell surface at 4 times MIC incubated for 2 hrs by SEM analysis", "assay_type": "functional, organism-based"}, "[10]": {"biological_target": "T1, Cell division protein FtsZ (Escherichia coli K-12) (UniProt P0A9A6)", "T1 sequence (whole entry)": "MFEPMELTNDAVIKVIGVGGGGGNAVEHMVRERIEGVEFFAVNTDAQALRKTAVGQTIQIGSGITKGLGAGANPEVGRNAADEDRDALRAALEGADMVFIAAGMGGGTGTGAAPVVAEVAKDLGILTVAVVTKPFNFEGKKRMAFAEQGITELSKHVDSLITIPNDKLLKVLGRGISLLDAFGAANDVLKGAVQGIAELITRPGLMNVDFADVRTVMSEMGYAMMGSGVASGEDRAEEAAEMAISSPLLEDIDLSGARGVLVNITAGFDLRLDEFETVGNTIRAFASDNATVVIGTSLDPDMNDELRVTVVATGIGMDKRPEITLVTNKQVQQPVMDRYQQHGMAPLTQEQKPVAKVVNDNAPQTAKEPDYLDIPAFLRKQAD", "test": "Inhibition of recombinant Escherichia coli FtsZ expressed in Escherichia coli BL21 assessed as induction of FtsZ polymerization incubated for 10 mins by light scattering assay", "details": "dose 1-4 µg/ml"}, "[11]": {"test": "Cytotoxicity against mouse RAW264.7 cells assessed as cell survival at 12.5 ug/ml incubated for 24 hrs by CCK8 assay relative to control", "assay_type": "toxicity, cell-based", "details": "at 12.5 µg/mL, read-out: Activity"}, "[12]": {"biological_target": "T1, Cell division protein FtsZ (Escherichia coli K-12)", "test": "Inhibition of recombinant Escherichia coli FtsZ expressed in Escherichia coli BL21 assessed as reduction in GTPase activity incubated for 30 mins by malachite green phosphate staining based assay", "details": "dose 0.02-0.64 µg/ml"}, "[13]": {"biological_target": "T1, Cell division protein FtsZ (Escherichia coli K-12)", "test": "Inhibition of recombinant Escherichia coli FtsZ expressed in Escherichia coli BL21 assessed as bundling of FtsZ filaments at 4 ug/ml incubated for 10 mins by TEM analysis", "details": "dose 4.0 µg/ml"}, "Staphylococcus aureus [14]": {"test_system": "Staphylococcus aureus", "test": "Antibacterial activity against methicillin-resistant Staphylococcus aureus ATCC43300 assessed as log10 CFU reduction at MIC measured for 1 hr by time-killing assay", "assay_type": "functional"}, "Staphylococcus aureus [15]": {"test_system": "Staphylococcus aureus", "test": "Antibacterial activity against methicillin-resistant Staphylococcus aureus ATCC43300 assessed as log10 CFU reduction at 2 to 4 times MIC measured for 0.5 hrs by time-killing assay", "assay_type": "functional"}},
  "note": "Activity calls are given as the source filed them. No cut-off for these calls is given here.",
  "data": [
    {"smiles": "O=C(O)c1cn(C2CC2)c2cc(N3CCNCC3)c(F)cc2c1=O", "note": "[CIPROFLOXACIN]", "values": [
      {"measurement": "MIC", "setting": "Staphylococcus aureus [1]", "value": 0.78, "unit": "µg/mL"},
      {"measurement": "MIC", "setting": "Bacillus subtilis [2]", "value": 0.195, "unit": "µg/mL"},
      {"measurement": "MIC", "setting": "Streptococcus pneumoniae", "value": 0.195, "unit": "µg/mL"},
      {"measurement": "MIC", "setting": "Escherichia coli", "value": 0.195, "unit": "µg/mL"}
    ]},
    {"smiles": "O=C(Nc1ccccc1)c1ccc2[nH]c3c4[n+](ccc3c2c1)-c1ccccc1C4=O.[Br-]", "values": [
      {"measurement": "MIC", "setting": "Staphylococcus aureus [1]", "value": 12.5, "unit": "µg/mL"},
      {"measurement": "MIC", "setting": "Bacillus subtilis [2]", "value": 6.25, "unit": "µg/mL"},
      {"measurement": "MIC", "setting": "Streptococcus pneumoniae", "value": 6.25, "unit": "µg/mL"},
      {"measurement": "MIC", "setting": "Escherichia coli", "value": "> 200", "unit": "µg/mL"}
    ]},
    {"smiles": "Cc1ccccc1NC(=O)c1ccc2[nH]c3c4[n+](ccc3c2c1)-c1ccccc1C4=O.[Br-]", "values": [
      {"measurement": "MIC", "setting": "Staphylococcus aureus [1]", "value": 25, "unit": "µg/mL"},
      {"measurement": "MIC", "setting": "Bacillus subtilis [2]", "value": 12.5, "unit": "µg/mL"},
      {"measurement": "MIC", "setting": "Streptococcus pneumoniae", "value": 50, "unit": "µg/mL"},
      {"measurement": "MIC", "setting": "Escherichia coli", "value": "> 200", "unit": "µg/mL"}
    ]},
    {"smiles": "CCCCCCc1ccc(NC(=O)c2ccc3[nH]c4c5[n+](ccc4c3c2)-c2ccccc2C5=O)cc1.[Br-]", "values": [
      {"measurement": "MIC", "setting": "Staphylococcus aureus [1]", "value": 25, "unit": "µg/mL"},
      {"measurement": "MIC", "setting": "Bacillus subtilis [2]", "value": 0.78, "unit": "µg/mL"},
      {"measurement": "MIC", "setting": "Streptococcus pneumoniae", "value": 6.25, "unit": "µg/mL"},
      {"measurement": "MIC", "setting": "Escherichia coli", "value": "> 200", "unit": "µg/mL"}
    ]},
    {"smiles": "CCCCCCCCc1ccc(NC(=O)c2ccc3[nH]c4c5[n+](ccc4c3c2)-c2ccccc2C5=O)cc1.[Br-]", "values": [
      {"measurement": "MIC", "setting": "Staphylococcus aureus [1]", "value": 25, "unit": "µg/mL"},
      {"measurement": "MIC", "setting": "Bacillus subtilis [2]", "value": 25, "unit": "µg/mL"},
      {"measurement": "MIC", "setting": "Streptococcus pneumoniae", "value": 25, "unit": "µg/mL"},
      {"measurement": "MIC", "setting": "Escherichia coli", "value": "> 200", "unit": "µg/mL"}
    ]},
    {"smiles": "COc1ccccc1NC(=O)c1ccc2[nH]c3c4[n+](ccc3c2c1)-c1ccccc1C4=O.[Br-]", "values": [
      {"measurement": "hemolysis at 1 h, 12.5 ug/ml", "setting": "[3]", "value": 0, "unit": "%"},
      {"measurement": "Activity", "setting": "Bacillus subtilis [4]", "value": "Active"},
      {"measurement": "MIC", "setting": "Staphylococcus aureus [1]", "value": 0.049, "unit": "µg/mL"},
      {"measurement": "inhibition", "setting": "Staphylococcus aureus [5]", "value": "inactive"},
      {"measurement": "Activity", "setting": "Staphylococcus aureus [6]", "value": "Active"},
      {"measurement": "MIC", "setting": "Bacillus subtilis [2]", "value": 0.024, "unit": "µg/mL"},
      {"measurement": "viability at 24 h, 25 ug/ml", "setting": "[7]", "value": 12.8, "unit": "%"},
      {"measurement": "Activity", "setting": "RAW264.7", "value": "Toxic"},
      {"measurement": "viability at 24 h, 50 ug/ml", "setting": "[8]", "value": 13.2, "unit": "%"},
      {"measurement": "Activity", "setting": "Staphylococcus aureus [9]", "value": "Active"},
      {"measurement": "inhibition", "setting": "[10]", "value": "Dose-Dependent Effect"},
      {"measurement": "viability at 24 h, 12.5 ug/ml", "setting": "[11]", "value": 14.6, "unit": "%"},
      {"measurement": "MIC", "setting": "Streptococcus pneumoniae", "value": 0.049, "unit": "µg/mL"},
      {"measurement": "MIC", "setting": "Escherichia coli", "value": "> 200", "unit": "µg/mL"},
      {"measurement": "inhibition", "setting": "[12]", "value": "Dose-Dependent Effect"},
      {"measurement": "inhibition", "setting": "[13]", "value": "Active"},
      {"measurement": "Activity", "setting": "Staphylococcus aureus [14]", "value": 2, "unit": "log10CFU/ml"},
      {"measurement": "Activity", "setting": "Staphylococcus aureus [15]", "value": 2, "unit": "log10CFU/ml"}
    ]},
    {"smiles": "O=C(NC1CCCCC1)c1ccc2[nH]c3c4[n+](ccc3c2c1)-c1ccccc1C4=O.[Br-]", "values": [
      {"measurement": "MIC", "setting": "Staphylococcus aureus [1]", "value": 0.78, "unit": "µg/mL"},
      {"measurement": "MIC", "setting": "Bacillus subtilis [2]", "value": 0.78, "unit": "µg/mL"},
      {"measurement": "MIC", "setting": "Streptococcus pneumoniae", "value": 0.78, "unit": "µg/mL"},
      {"measurement": "MIC", "setting": "Escherichia coli", "value": "> 200", "unit": "µg/mL"}
    ]},
    {"smiles": "COc1ccc(NC(=O)c2ccc3[nH]c4c5[n+](ccc4c3c2)-c2ccccc2C5=O)cc1.[Br-]", "values": [
      {"measurement": "MIC", "setting": "Staphylococcus aureus [1]", "value": 0.39, "unit": "µg/mL"},
      {"measurement": "MIC", "setting": "Bacillus subtilis [2]", "value": 0.39, "unit": "µg/mL"},
      {"measurement": "MIC", "setting": "Streptococcus pneumoniae", "value": 0.39, "unit": "µg/mL"},
      {"measurement": "MIC", "setting": "Escherichia coli", "value": "> 200", "unit": "µg/mL"}
    ]},
    {"smiles": "CC(C)c1ccc(NC(=O)c2ccc3[nH]c4c5[n+](ccc4c3c2)-c2ccccc2C5=O)cc1.[Br-]", "values": [
      {"measurement": "MIC", "setting": "Staphylococcus aureus [1]", "value": 0.195, "unit": "µg/mL"},
      {"measurement": "MIC", "setting": "Bacillus subtilis [2]", "value": 0.049, "unit": "µg/mL"},
      {"measurement": "MIC", "setting": "Streptococcus pneumoniae", "value": 0.049, "unit": "µg/mL"},
      {"measurement": "MIC", "setting": "Escherichia coli", "value": "> 200", "unit": "µg/mL"}
    ]}
  ]
}
